Experimental data reported in patent US10208033B2, “β-carboline, dihydro-β-carboline and tetrahydro-β-carboline alkaloid derivatives and preparation methods same and use in aspects of preventing and treating plant viruses, fungicides and insecticides” (NANKAI UNIVERSITY, priority 2013, dated 2019).
Counter-ions that a name gives are not always drawn.

Legend:
[1] = test system: tobacco mosaic virus (TMV); assay: Anti-TMV in vivo protective effect; design: species or system tobacco mosaic virus (host Nicotiana tabacum L.cv.Xanthi NN); settings: Tobacco mosaic virus, read-out: Relative inhibition rate (%) In vivo protection
[2] = test system: tobacco mosaic virus (TMV); assay: Anti-TMV in vitro effect (half-leaf soaking); assay type: cell-based, tobacco mosaic virus (host Nicotiana tabacum L.cv.Xanthi NN); settings: Tobacco mosaic virus, read-out: Relative inhibition rate (%) In vitro activity
[3] = test system: Phytophthora capsici; assay: Fungicidal (bactericidal) activity in vitro, PDA colony diameter; assay type: cell-based; settings: Phytophthora capsici, 96 h; 50 mg/kg
[4] = test system: Rhizoctonia solani; assay: as above; assay type: cell-based; settings: Rhizoctonia solani, 96 h; 50 mg/kg
[5] = test system: Botrytis cinerea; assay: as above; assay type: cell-based; settings: Botrytis cinerea, 96 h; 50 mg/kg
[6] = test system: Fusarium graminearumt; assay: microbe, parasite or virus in culture; assay type: cell-based; settings: Fusarium, 96 h, read-out: Bactericidal activity (%) Fusarium graminearumt
[7] = test system: Fusarium fujikuroi; assay: Fungicidal (bactericidal) activity in vitro, PDA colony diameter; assay type: cell-based; settings: Fusarium fujikuroi, 96 h; 50 mg/kg
[8] = test system: potato late blight; assay: microbe, parasite or virus in culture; assay type: cell-based; settings: Phytophthora infestans, 96 h, read-out: Bactericidal activity (%) potato late blight
[9] = test system: cucumber fusarium wilt; assay: Fungicidal (bactericidal) activity in vitro, PDA colony diameter; assay type: cell-based; settings: Fusarium, 96 h; 50 mg/kg
[10] = test system: Rhizoctonia cereali; assay: as above; assay type: cell-based; settings: Rhizoctonia, 96 h; 50 mg/kg
[11] = test system: tobacco mosaic virus (TMV); assay: Anti-TMV in vivo therapeutic effect; design: species or system tobacco mosaic virus (host Nicotiana tabacum L.cv.Xanthi NN); settings: Tobacco mosaic virus, read-out: Relative inhibition rate (%) In vivo therapy
[12] = test system: tobacco mosaic virus (TMV); assay: Anti-TMV in vivo inactivation; design: species or system tobacco mosaic virus (host Nicotiana tabacum L.cv.Xanthi NN); settings: Tobacco mosaic virus, read-out: Relative inhibition rate (%) In vivo inactivation
[13] = test system: Alternaria solani; assay: Fungicidal (bactericidal) activity in vitro, PDA colony diameter; assay type: cell-based; settings: Alternaria solani, 96 h; 50 mg/kg
[14] = test system: cotton bollworms; assay: whole plant or invertebrate; settings: Helicoverpa armigera, in Gossypium hirsutum, read-out: Cotton bollworm Mortality (%)
Description: Experimental method of cotton bollworms: feed and drug mixing method: measure 3 mL of prepared solution and add it to about 27 g of newly prepared feed, thereby obtaining needed concentration through dilution by 10 times.

[15] = test system: armyworms; assay type: in vivo; settings: concentration 600 mg/kg
[16] = test system: Sclerotinia scleotiorum; assay: Fungicidal (bactericidal) activity in vitro, PDA colony diameter; assay type: cell-based; settings: Sclerotinia, 96 h; 50 mg/kg
[17] = test system: Macrophoma kawatsukai; assay: as above; assay type: cell-based; settings: 50 mg/kg
[18] = test system: corn borers; assay: whole plant or invertebrate; settings: read-out: Corn borer Mortality (%)
[19] = test system: Colletotrichum orbiculare; assay: Fungicidal (bactericidal) activity in vitro, PDA colony diameter; assay type: cell-based; settings: Colletotrichum orbiculare, 96 h; 50 mg/kg
[20] = test system: Cercospora arachidicola; assay: as above; assay type: cell-based; settings: Mycosphaerella arachidis, 96 h; 50 mg/kg
[21] = test system: Bipolaria maydis; assay: organism not typed; assay type: cell-based; settings: read-out: Bactericidal activity (%) Bipolaria maydis
[22] = test system: mosquito larvae; assay: whole plant or invertebrate; settings: for mortality at 5 mg/kg / mortality at 10 mg/kg: Culex pipiens, 24 h, read-out: Mosquito larvae Mortality (%)
Method in brief: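 Compound dissolved in acetone (or other solvent) to a 1000 ppm stock and diluted in water to 5 ppm. Ten Culex pipiens pallens larvae at the start of the fourth instar, laboratory-reared, added per beaker; solvent-only aqueous control.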

Row | SMILES | inhibition of growth at 50 mg/kg [3] [%] | inhibition of growth at 50 mg/kg [4] [%] | inhibition of growth at 50 mg/kg [5] [%] | inhibition of growth at 50 mg/kg [6] [%] | inhibition of growth at 50 mg/kg [7] [%] | inhibition of growth at 50 mg/kg [8] [%] | inhibition of growth at 50 mg/kg [9] [%] | inhibition of growth at 50 mg/kg [10] [%] | inhibition of growth at 50 mg/kg [13] [%] | mortality at 600 mg/kg [14] [%] | Armyworm Mortality (%) [15] [%] | inhibition of growth at 50 mg/kg [16] [%] | inhibition at 50 mg/kg [17] [%] | mortality at 600 mg/kg [18] [%] | inhibition of growth at 50 mg/kg [19] [%] | inhibition of growth at 50 mg/kg [20] [%] | inhibition at 50 mg/kg [21] [%] | mortality at 10 mg/kg [22] [%] | inhibition at 100 µg/mL ([1]; treatment dose 100 μg/mL) [%] | inhibition at 500 µg/mL ([1]; treatment dose 500 μg/mL) [%] | further results
1 | Cc1nccc2c1[nH]c1cc(O)ccc12 [Harmol] | 25 | 50 | 9.1 | 23.8 | 28.6 | 22.7 | 26.9 | 42.1 | 26.3 | 20 | 50 | 5.9 | 23.8 | 45 | 46.4 | 46.2 | 31.8 | 100 | – | – | inhibition at 100 µg/mL [1]: 9.5%; inhibition at 500 µg/mL [1]: 36.7%; inhibition at 100 µg/mL [2]: 0%; inhibition at 500 µg/mL [2]: 32.6%; inhibition at 100 µg/mL [11]: 0%; inhibition at 500 µg/mL [11]: 30%; inhibition at 100 µg/mL [12]: 0%; inhibition at 500 µg/mL [12]: 35.1%; mortality at 5 mg/kg [22]: 30%
2 | Cc1nccc2c1[nH]c1ccc([N+](=O)[O-])cc12 [Ia-3] | 36.4 | 10.7 | 54.6 | 50 | 42.9 | 25 | 23.8 | 59.4 | 33.3 | 35 | 50 | 56 | 35.3 | 50 | 23.8 | 7.1 | 31.6 | 100 | 0 | 26.1 | inhibition at 100 µg/mL ([2]; treatment dose 100 μg/mL): 0%; inhibition at 500 µg/mL ([2]; treatment dose 500 μg/mL): 15.7%; inhibition at 100 µg/mL ([11]; treatment dose 100 μg/mL): 0%; inhibition at 500 µg/mL ([11]; treatment dose 500 μg/mL): 18.5%; inhibition at 100 µg/mL ([12]; treatment dose 100 μg/mL): 0%; inhibition at 500 µg/mL ([12]; treatment dose 500 μg/mL): 21.5%; mortality at 5 mg/kg [22]: 60%; activity against culex pipiens larvae (in words) ([22]; at 5 mg/kg): still show high activity
3 | Cc1nccc2c1[nH]c1c([N+](=O)[O-])cccc12 [Ia-4] | 9.4 | 42.1 | 18.2 | 42.9 | 21.4 | 27.3 | 38.5 | 50 | 15.8 | 10 | 10 | 29.4 | 35.7 | 5 | 42.9 | 53.9 | 36.4 | 30 | 5.8 | 30.1 | inhibition at 100 µg/mL ([2]; treatment dose 100 μg/mL): 0%; inhibition at 500 µg/mL ([2]; treatment dose 500 μg/mL): 30%; inhibition at 100 µg/mL ([11]; treatment dose 100 μg/mL): 0%; inhibition at 500 µg/mL ([11]; treatment dose 500 μg/mL): 33.3%; inhibition at 100 µg/mL ([12]; treatment dose 100 μg/mL): 10.5%; inhibition at 500 µg/mL ([12]; treatment dose 500 μg/mL): 36.4%
4 | Cc1nccc2c1[nH]c1cc(OC(=O)NC(C)C)ccc12 [Ia-5, isopropylamino formate (1-methylpyridino [3,4-b]indol-7)-ester] | 25 | 6.6 | 0 | 23.8 | 14.3 | 18.2 | 34.6 | 36.8 | 21.1 | 15 | 10 | 9.8 | 2.4 | 10 | 39.3 | 53.9 | 22.7 | 30 | 5.8 | 40.3 | inhibition at 100 µg/mL ([2]; treatment dose 100 μg/mL): 0%; inhibition at 500 µg/mL ([2]; treatment dose 500 μg/mL): 31.3%; inhibition at 100 µg/mL ([11]; treatment dose 100 μg/mL): 0%; inhibition at 500 µg/mL ([11]; treatment dose 500 μg/mL): 32.7%; inhibition at 100 µg/mL ([12]; treatment dose 100 μg/mL): 0%; inhibition at 500 µg/mL ([12]; treatment dose 500 μg/mL): 29.5%
5 | Cc1nccc2c1[nH]c1cc(OC(=O)[C@@H](NC(=O)OCc3ccccc3)C(C)C)ccc12 [Ia-9] | 50 | 52.6 | 51.5 | 35.7 | 21.4 | 45.5 | 38.5 | 84.2 | 36.8 | 20 | 5 | 13.7 | 78.6 | 5 | 50 | 61.5 | 36.4 | 25 | 0 | 19.6 | inhibition at 100 µg/mL ([2]; treatment dose 100 μg/mL): 0%; inhibition at 500 µg/mL ([2]; treatment dose 500 μg/mL): 20.7%; inhibition at 100 µg/mL ([11]; treatment dose 100 μg/mL): 0%; inhibition at 500 µg/mL ([11]; treatment dose 500 μg/mL): 12.5%; inhibition at 100 µg/mL ([12]; treatment dose 100 μg/mL): 0%; inhibition at 500 µg/mL ([12]; treatment dose 500 μg/mL): 13.6%
